Patent US9789096B2, “Methods and compositions for selective and targeted cancer therapy” (Board of Regents of the University of Texas System, priority 2013, dated 2017)

The compounds below were run on H2122 (assay: Cell viability dose-response, H2122). Details: Homo sapiens, NCI-H2122, 12-point dose-response starting at 50 micromolar, 3-fold increments, in duplicate; read-out: toxicity data, H2122.
Format: cell-based, human
Procedure: (§1) FIG. 6A. […] Cell viability is plotted vs. compound concentration. Compound was added to cells plated at 15% confluence in 96-well plates in RPMI-1640 media supplemented with 5% Fetal Bovine Serum and 2 mM L-Glutamine. After 4 days of incubation, ATP levels were measured using Cell Titer Glo (Promega). Data are presented as the average of 2 replicates ±SEM.
(§2) Selectivity may be measured by the half maximal inhibitory concentration (IC50), which, as used herein, is a measure of the effectiveness of a compound in killing cells. This quantitative measure indicates how much of a particular compound is needed to kill a particular cell population by half (e.g., as indicated by the amount of ATP). […] The IC50 can be determined by constructing a dose-response curve. The lower the IC50, the higher the potency, and the greater the difference between IC50 values for different cell lines (e.g., sensitive lines vs. insensitive lines, and sensitive lines vs. normal lines) the greater the selectivity. […]
(§3) With this information, we synthesized and tested a series of small molecules derived in conception from the oxalamide and chromone scaffold including N-acyl ureas, as shown in Tables 6-8. Each compound was tested in a 12-point dose-response study starting at 50 micromolar and decreasing in 3-fold increments to sub-nanomolar concentrations, in duplicate. Additionally, one or more additional cell line was tested in the same way.

SMILES | IC50
COc1ccc(CCNC(=O)c2cnc3ccccc3n2)cc1 [SW208051-1-A] | ≥ 49.5 µM
COc1ccc(CCNC(=O)c2ccc3ccccc3n2)cc1 [SW208052-1-A] | ≥ 49.5 µM
COc1ccc(CCNC(=O)c2cc(OC)c3ccccc3n2)cc1 [SW208053-1-A] | 45.9 µM
COc1ccc(CCNC(=O)c2cc(O)c3cccc(O)c3n2)cc1 [SW208054-1-A] | 46.3 µM
COc1ccc(CCNC(=O)c2ccc3cccc(F)c3n2)cc1 [SW208055-1-A] | ≥ 49.5 µM
COc1ccc(CCNC(=O)c2ccc3cccc(O)c3n2)cc1 [SW208056-1-A] | 30.2 µM
COc1ccc(CCNC(=O)c2ccc3ccc(Br)cc3n2)cc1 [SW208057-1-A] | ≥ 49.5 µM
COc1ccc(CCNC(=O)C(=O)N2Cc3ccccc3C2)cc1 [SW208058-1-A] | ≥ 49.5 µM
COc1ccc(CCNC(=O)C(=O)N2CCc3ccccc32)cc1 [SW208059-1-A] | ≥ 49.5 µM
COc1ccc(CCNC(=O)C(=O)N2CCc3ccccc3C2)cc1 [SW208060-1-A] | ≥ 49.5 µM
CCOc1ccc(CCNC(=O)C(=O)Nc2ccc(Cl)cc2)cc1 [SW208061-1-A] | ≥ 49.5 µM
O=C(NCc1ccccc1)NCc1ccccc1 [SW208062-1-A] | ≥ 49.5 µM
COc1ccc(CCNC(=O)c2nc3ccccc3c(=O)[nH]2)cc1 [SW208063-1-A] | ≥ 49.5 µM
C#CCOc1ccc(C(=O)c2ccc(NC(=O)C(=O)NCCc3ccc(OC)cc3)cc2)cc1 [SW208108-1-A] | 0.028 µM
COc1ccc(C(=O)c2ccc(NC(=O)C(=O)NCCc3ccc(O)cc3)cc2)cc1 [SW208117-1-A] | 0.031 µM
COc1ccc(CCCNC(=O)NCc2ccccc2)cc1 [SW208120-1-A] | 38.9 µM
COc1ccc(CCCNC(=O)NCc2ccc(Cl)cc2)cc1 [SW208121-1-A] | 3.67 µM
COc1ccc(CCNC(=O)C(=O)Nc2ccccn2)cc1 [SW208122-1-A] | 45 µM
COc1ccc(CCNC(=O)C(=O)Nc2ccc(Cl)cn2)cc1 [SW208123-1-A] | 0.348 µM
COc1ccc(CCNC(=O)c2ccc3ccccc3c2O)cc1 [SW208124-1-A] | 36.2 µM
COc1ccc(CCNC(=O)c2nc3ccccc3o2)cc1 [SW208125-1-A] | 30.4 µM
COc1ccc(CCNC(=O)C(=O)Nc2cccc(Br)n2)cc1 [SW208126-1-A] | ≥ 49.5 µM
COc1ccc(CCNC(=O)C(=O)Nc2ccc(Cl)nc2)cc1 [SW208127-1-A] | 0.438 µM
COc1ccc(CCNC(=O)C(=O)Nc2ccc(Br)cn2)cc1 [SW208128-1-A] | 0.289 µM
COc1ccc(CCNC(=O)C(=O)NN2CCCCC2)cc1 [SW208129-1-A] | ≥ 49.5 µM
COc1ccc(CCNC(=O)C(=O)CNc2ccncc2)cc1 [SW208130-1-A] | ≥ 49.5 µM
COc1ccc(CCNC(=O)C(=O)NN2CCN(C)CC2)cc1 [SW208131-1-A] | ≥ 49.5 µM
COc1ccc(CCNC(=O)C(=O)O)cc1 [SW208132-1-A] | ≥ 49.5 µM

Same assay, conditions: Homo sapiens, NCI-H2122, Table 9, competitor; read-out: IC50 to H2122 cells

SMILES | IC50
COc1ccc(C(=O)c2ccc(NC(=O)C(=O)NCCc3ccc(O)cc3)cc2)cc1 [SW208117-1-A] | 0.0244 µM

Each compound was assayed on H1819 (assay: Cell viability dose-response, H1819). Details: Homo sapiens, NCI-H1819, 12-point dose-response starting at 50 micromolar, 3-fold increments, in duplicate; read-out: toxicity data, H1819.
Format: cell-based, human
Procedure: as §1, §2, §3

SMILES | IC50
COc1ccc(CCNC(=O)c2cnc3ccccc3n2)cc1 [SW208051-1-A] | ≥ 49.5 µM
COc1ccc(CCNC(=O)c2ccc3ccccc3n2)cc1 [SW208052-1-A] | ≥ 49.5 µM
COc1ccc(CCNC(=O)c2cc(OC)c3ccccc3n2)cc1 [SW208053-1-A] | 32 µM
COc1ccc(CCNC(=O)c2cc(O)c3cccc(O)c3n2)cc1 [SW208054-1-A] | ≥ 49.5 µM
COc1ccc(CCNC(=O)c2ccc3cccc(F)c3n2)cc1 [SW208055-1-A] | ≥ 49.5 µM
COc1ccc(CCNC(=O)c2ccc3cccc(O)c3n2)cc1 [SW208056-1-A] | 29.8 µM
COc1ccc(CCNC(=O)c2ccc3ccc(Br)cc3n2)cc1 [SW208057-1-A] | 34.9 µM
COc1ccc(CCNC(=O)C(=O)N2Cc3ccccc3C2)cc1 [SW208058-1-A] | ≥ 49.5 µM
COc1ccc(CCNC(=O)C(=O)N2CCc3ccccc32)cc1 [SW208059-1-A] | ≥ 49.5 µM
COc1ccc(CCNC(=O)C(=O)N2CCc3ccccc3C2)cc1 [SW208060-1-A] | ≥ 49.5 µM
CCOc1ccc(CCNC(=O)C(=O)Nc2ccc(Cl)cc2)cc1 [SW208061-1-A] | ≥ 49.5 µM
COc1ccc(CCNC(=O)c2nc3ccccc3c(=O)[nH]2)cc1 [SW208063-1-A] | ≥ 49.5 µM
C#CCOc1ccc(C(=O)c2ccc(NC(=O)C(=O)NCCc3ccc(OC)cc3)cc2)cc1 [SW208108-1-A] | ≥ 49.5 µM
COc1ccc(C(=O)c2ccc(NC(=O)C(=O)NCCc3ccc(O)cc3)cc2)cc1 [SW208117-1-A] | 15.6 µM
COc1ccc(CCCNC(=O)NCc2ccccc2)cc1 [SW208120-1-A] | ≥ 49.5 µM
COc1ccc(CCCNC(=O)NCc2ccc(Cl)cc2)cc1 [SW208121-1-A] | 5.75 µM
COc1ccc(CCNC(=O)C(=O)Nc2ccccn2)cc1 [SW208122-1-A] | ≥ 49.5 µM
COc1ccc(CCNC(=O)C(=O)Nc2ccc(Cl)cn2)cc1 [SW208123-1-A] | 46.3 µM
COc1ccc(CCNC(=O)c2ccc3ccccc3c2O)cc1 [SW208124-1-A] | 34.1 µM
COc1ccc(CCNC(=O)c2nc3ccccc3o2)cc1 [SW208125-1-A] | ≥ 49.5 µM
COc1ccc(CCNC(=O)C(=O)Nc2cccc(Br)n2)cc1 [SW208126-1-A] | ≥ 49.5 µM
COc1ccc(CCNC(=O)C(=O)Nc2ccc(Cl)nc2)cc1 [SW208127-1-A] | ≥ 49.5 µM
COc1ccc(CCNC(=O)C(=O)Nc2ccc(Br)cn2)cc1 [SW208128-1-A] | ≥ 49.5 µM
COc1ccc(CCNC(=O)C(=O)NN2CCCCC2)cc1 [SW208129-1-A] | ≥ 49.5 µM
COc1ccc(CCNC(=O)C(=O)CNc2ccncc2)cc1 [SW208130-1-A] | ≥ 49.5 µM
COc1ccc(CCNC(=O)C(=O)NN2CCN(C)CC2)cc1 [SW208131-1-A] | ≥ 49.5 µM
COc1ccc(CCNC(=O)C(=O)O)cc1 [SW208132-1-A] | ≥ 49.5 µM

Same assay, conditions: Homo sapiens, NCI-H1819, read-out: toxicity data, H1819

SMILES | IC50
O=C(NCc1ccccc1)NCc1ccccc1 [SW208062-1-A] | ≥ 49.5 µM
